Measurements published in PubChem BioAssay (NCI).
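Values below derive from 48-hour exposures of cells grown in 96-well plates, with endpoints linearly interpolated between the two concentrations bracketing the appropriate inhibition level. TGI is the concentration that stops growth completely.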

Key:
Test in all cases: growth of human tumour cells (NCI), 48 h
786-0 renal = test system: 786-0 renal
A498 renal = test system: A498 renal
A549 NSCLC = test system: A549 NSCLC
ACHN renal = test system: ACHN renal
BT-549 breast = test system: BT-549 breast
CAKI-1 renal = test system: CAKI-1 renal
CCRF-CEM leukemia = test system: CCRF-CEM leukemia
COLO 205 colon = test system: COLO 205 colon
DU-145 prostate = test system: DU-145 prostate
EKVX NSCLC = test system: EKVX NSCLC
HCT-116 colon = test system: HCT-116 colon
HCT-15 colon = test system: HCT-15 colon
HL-60(TB) leukemia = test system: HL-60(TB) leukemia
HOP-62 NSCLC = test system: HOP-62 NSCLC
HOP-92 NSCLC = test system: HOP-92 NSCLC
HS 578T breast = test system: HS 578T breast
HT29 colon = test system: HT29 colon
IGROV1 ovarian = test system: IGROV1 ovarian
K-562 leukemia = test system: K-562 leukemia
KM12 colon = test system: KM12 colon
LOX IMVI melanoma = test system: LOX IMVI melanoma
M14 melanoma = test system: M14 melanoma
MALME-3M melanoma = test system: MALME-3M melanoma
MCF7 breast = test system: MCF7 breast
MDA-MB-231 breast = test system: MDA-MB-231 breast
MDA-MB-435 = test system: MDA-MB-435
MDA-N = test system: MDA-N
MOLT-4 leukemia = test system: MOLT-4 leukemia
NCI-H226 lung = test system: NCI-H226 lung
NCI-H23 lung = test system: NCI-H23 lung
NCI-H460 lung = test system: NCI-H460 lung
NCI-H522 lung = test system: NCI-H522 lung
NCI/ADR-RES ovarian = test system: NCI/ADR-RES ovarian
OVCAR-3 ovarian = test system: OVCAR-3 ovarian
OVCAR-4 ovarian = test system: OVCAR-4 ovarian
OVCAR-5 ovarian = test system: OVCAR-5 ovarian
OVCAR-8 ovarian = test system: OVCAR-8 ovarian
PC-3 prostate = test system: PC-3 prostate
RPMI-8226 leukemia = test system: RPMI-8226 leukemia
RXF 393 renal = test system: RXF 393 renal
SF-268 CNS = test system: SF-268 CNS
SF-295 CNS = test system: SF-295 CNS
SF-539 CNS = test system: SF-539 CNS
SK-MEL-2 melanoma = test system: SK-MEL-2 melanoma
SK-MEL-28 melanoma = test system: SK-MEL-28 melanoma
SK-MEL-5 melanoma = test system: SK-MEL-5 melanoma
SK-OV-3 ovarian = test system: SK-OV-3 ovarian
SN12C renal = test system: SN12C renal
SNB-19 CNS = test system: SNB-19 CNS
SNB-75 CNS = test system: SNB-75 CNS
SR leukemia = test system: SR leukemia
SW-620 colon = test system: SW-620 colon
T-47D breast = test system: T-47D breast
TK-10 renal = test system: TK-10 renal
U251 CNS = test system: U251 CNS
UACC-257 melanoma = test system: UACC-257 melanoma
UACC-62 melanoma = test system: UACC-62 melanoma
UO-31 renal = test system: UO-31 renal
HCC-2998 colon = test system: HCC-2998 colon

Measured: TGI

CC(=O)Nc1ccc(Cc2ccc3[nH]c(=O)cc(C)c3c2)cc1
28.1 µM: SNB-75 CNS
98.2 µM: 786-0 renal
77.7 µM: SK-MEL-2 melanoma
not listed: HCC-2998 colon
> 100 µM: all other assays above

CCC1OC(=O)CC(O)C(C)C(OC2OC(C)CC(N(C)C)C2O)C(CC=O)CC(C)C(=O)/C=C/C2(C)OC2C1C (centres undefined)
30.6 µM: SNB-19 CNS
71.8 µM: A498 renal
52.3 µM: NCI-H23 lung
61.2 µM: DU-145 prostate
25 µM: MCF7 breast
59.1 µM: OVCAR-3 ovarian
77.1 µM: SF-295 CNS
86.7 µM: NCI/ADR-RES ovarian
29.3 µM: SK-MEL-5 melanoma
32.4 µM: HL-60(TB) leukemia
48 µM: LOX IMVI melanoma
31.8 µM: BT-549 breast
48.6 µM: T-47D breast
53.8 µM: MDA-MB-231 breast
34.8 µM: SW-620 colon
68.5 µM: OVCAR-8 ovarian
26.2 µM: CCRF-CEM leukemia
28.9 µM: UACC-62 melanoma
71.7 µM: HOP-62 NSCLC
56.1 µM: ACHN renal | RXF 393 renal
38.3 µM: HT29 colon
32.2 µM: COLO 205 colon
25.4 µM: IGROV1 ovarian
80.4 µM: UO-31 renal
78.9 µM: SK-OV-3 ovarian
29.6 µM: SF-539 CNS
28.6 µM: KM12 colon
64.9 µM: MALME-3M melanoma
49.6 µM: NCI-H226 lung
31.6 µM: HCT-116 colon
54.9 µM: NCI-H522 lung
40.8 µM: SNB-75 CNS
36.6 µM: SR leukemia
74.1 µM: CAKI-1 renal
40.9 µM: 786-0 renal
44.8 µM: EKVX NSCLC
64.6 µM: HOP-92 NSCLC
40.3 µM: MDA-MB-435
24.3 µM: K-562 leukemia
30.8 µM: U251 CNS
43.4 µM: MOLT-4 leukemia
39.1 µM: HCT-15 colon | SN12C renal
42.3 µM: SK-MEL-28 melanoma
76.3 µM: SF-268 CNS
not listed: OVCAR-4 ovarian | TK-10 renal
> 100 µM: all other assays above

CC(=O)CC12NC(=O)N(C)N=C1N(C)C(=O)N(C)C2=O (centres undefined)
31 µM: MDA-MB-435
40.4 µM: UACC-257 melanoma
72.9 µM: SF-539 CNS
73.3 µM: UACC-62 melanoma
43.3 µM: MDA-N
40.8 µM: LOX IMVI melanoma
26.5 µM: MALME-3M melanoma
not listed: SK-MEL-2 melanoma | SK-MEL-5 melanoma | SNB-19 CNS
> 100 µM: all other assays above

Nc1nc(-c2ccc3ccccc3c2)cc(-c2cc(-c3ccc4ccccc4c3)nc(N)n2)n1
not listed: SNB-75 CNS
> 100 µM: all other assays above
